These results are taken from patent publication US8785445B2 (Array BioPharma Inc., priority 2008, dated 2014).

Structures are written as SMILES.

The first assay has as its target T1, human DP2 (Homo sapiens, UniProt Q9Y5Y4).
T1 construct: expressed in transfected cells; membranes prepared
T1 sequence (Q9Y5Y4 1-395): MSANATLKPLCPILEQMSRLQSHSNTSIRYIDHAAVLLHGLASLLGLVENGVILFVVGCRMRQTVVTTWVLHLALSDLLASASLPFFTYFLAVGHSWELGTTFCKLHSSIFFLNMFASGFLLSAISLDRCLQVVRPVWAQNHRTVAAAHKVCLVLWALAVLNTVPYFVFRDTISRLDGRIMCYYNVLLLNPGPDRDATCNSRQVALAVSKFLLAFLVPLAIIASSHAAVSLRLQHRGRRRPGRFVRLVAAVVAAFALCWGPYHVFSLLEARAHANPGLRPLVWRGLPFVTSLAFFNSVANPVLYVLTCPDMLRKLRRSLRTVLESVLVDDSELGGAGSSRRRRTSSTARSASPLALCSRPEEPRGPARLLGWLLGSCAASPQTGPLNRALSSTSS
Kind of assay: DP-2 binding inhibition assay (3H-PGD2, membranes of DP2-expressing K562 cells). The conditions noted are these: 0.1% BSA, read-out: EC50 (nM) 0.1% BSA. As to the method: The coding sequence of human DP2 was introduced into the human Leukemic cell line K562 by electroporation and stable clones expressing DP2 were obtained by limiting dilution followed by cell surface staining with a rat monoclonal antibody specific for human DP2. Membranes were prepared from one of these DP2 expressing clones and used to determine the ability of the compounds of the present invention to inhibit binding of prostaglandin D2 (PGD2) to its receptor DP2 in the presence of one or more of the following serum protein concentrations, 0.1% BSA, 1% HSA or 4% HSA, by the following procedure. […] After incubation for 60 minutes at room temperature, the assay was transferred to a filtration plate (#MAFB; Millipore Corporation, Bedford, Mass.), and washed three times with binding buffer. Radioactivity was measured by a scintillation counter (TopCount; PerkinElmer Life Sciences, Boston, Mass.). Nonspecific binding was determined by incubations in the presence of 1 μM unlabeled PGD2 or 5 μM of a known DP2 antagonist. IC50 values for inhibition of binding were determined for each compound tested from the inflexion point of a standard 4-parameter logistical curve fitted to the values obtained.
`N#Cc1cc2c(cc1Oc1ccc(C(=O)Nc3ccc4cc(Cl)ccc4n3)cc1)OCCC2C(=O)O` (centres unmarked) [Example 5, 7-(4-(6-Chloroquinolin-2-ylcarbamoyl)phenoxy)-6-cyanochroman-4-carboxylic acid]: the EC50 was 5.9 nM.

Turning to `Cc1csc(NC(=O)c2ccc(Oc3cc4c(cc3C#N)C(C(=O)O)CCO4)cc2)n1` (centres unmarked) [Example 177, 6-cyano-7-(4-(4-methylthiazol-2-ylcarbamoyl)phenoxy)chroman-4-carboxylic acid], the EC50 turned out to be 68.2 nM.

`N#Cc1cc2c(cc1Oc1ccc(C(=O)Nc3nc4ccc(F)cc4s3)cc1)OCCC2C(=O)O` (centres unmarked) [Example 195, 6-cyano-7-(4-(6-fluorobenzo[d]thiazol-2-ylcarbamoyl)phenoxy) chroman-4-carboxylic acid]: the concentration for a half-maximal effect (EC50) is 12.9 nM.

As for `Cc1cnc(NC(=O)c2ccc(Oc3cc4c(cc3C#N)C(C(=O)O)CCO4)cc2)s1` (centres unmarked) [Example 176, 6-cyano-7-(4-(5-methylthiazol-2-ylcarbamoyl)phenoxy)chroman-4-carboxylic acid], the EC50 is 62.7 nM.

As to `N#Cc1cc2c(cc1Oc1ccc(C(=O)Nc3nc4ccccc4o3)cc1)OCCC2C(=O)O` (centres unmarked) [Example 203, 7-(4-(benzo[d]oxazol-2-ylcarbamoyl)phenoxy)-6-cyanochroman-4-carboxylic acid], the EC50 was found to be 69 nM.

Staying with this assay, now noted: 1% HSA, read-out: EC50 (nM) 1% HSA.
With `N#Cc1cc2c(cc1Oc1ccc(C(=O)Nc3ccc4cc(Cl)ccc4n3)cc1)OCCC2C(=O)O` (centres unmarked) [Example 5, 7-(4-(6-Chloroquinolin-2-ylcarbamoyl)phenoxy)-6-cyanochroman-4-carboxylic acid], the EC50 was found to be 137 nM.

`N#Cc1cc2c(cc1Oc1ccc(C(=O)Nc3nc4ccc(F)cc4s3)cc1)OCCC2C(=O)O` (centres unmarked) [Example 195, 6-cyano-7-(4-(6-fluorobenzo[d]thiazol-2-ylcarbamoyl)phenoxy) chroman-4-carboxylic acid]: the EC50 amounted to 194 nM.

The assay is the same for the next values; noted with them: 4% HSA, read-out: EC50 (nM) 4% HSA.
As to `O=C(Nc1cncc(-c2ccc(Cl)cc2)c1)c1ccc(Oc2cc3c(cc2Cl)C(C(=O)O)CCO3)cc1` (centres unmarked) [Example 126, 6-Chloro-7-(4-(5-(4-chlorophenyl)pyridin-3-ylcarbamoyl)phenoxy)chroman-4-carboxylic acid], the EC50 was 469 nM.

On to `O=C(Nc1cccc(-c2ccc(Cl)cc2)n1)c1ccc(Oc2cc3c(cc2Cl)C(C(=O)O)CCO3)cc1` (single isomer, unassigned; enantiomer 2) [Example 182, Enantiomer 2 of 6-Chloro-7-(4-(6-(4-chlorophenyl)pyridin-2-ylcarbamoyl)phenoxy)chroman-4-carboxylic acid], for which the EC50 amounted to 22 nM.

As for `CC(C)(C)c1cccc(NC(=O)c2ccc(Oc3cc4c(cc3Cl)C(C(=O)O)CCO4)cc2)n1` (centres unmarked) [Example 114, 7-(4-(6-tert-Butylpyridin-2-ylcarbamoyl)phenoxy)-6-chlorochroman-4-carboxylic acid], the EC50 was 276 nM.

Consider `CCc1oc(NC(=O)c2ccc(Oc3cc4c(cc3Cl)C(C(=O)O)CCO4)cc2)nc1-c1ccccc1` (centres unmarked) [Example 159, 6-chloro-7-(4-(5-ethyl-4-phenyloxazol-2-ylcarbamoyl)phenoxy)chroman-4-carboxylic acid], for which the EC50 amounted to 437 nM.

Consider `N#Cc1cc2c(cc1Oc1ccc(C(=O)Nc3ccc4cc(Cl)ccc4n3)cc1)OCCC2C(=O)O` (centres unmarked) [Example 5, 7-(4-(6-Chloroquinolin-2-ylcarbamoyl)phenoxy)-6-cyanochroman-4-carboxylic acid], for which the EC50 was 357 nM.

With `O=C(Nc1ccc(-c2cccc(C(F)(F)F)c2)nc1)c1ccc(Oc2cc3c(cc2Cl)C(C(=O)O)CCO3)cc1` (centres unmarked) [Example 75, 6-Chloro-7-(4-(6-(3-(trifluoromethyl)phenyl)pyridin-3-ylcarbamoyl)phenoxy)chroman-4-carboxylic acid], the EC50 turned out to be 149 nM.

`O=C(Nc1cccc(-c2ccc(Cl)c(F)c2)n1)c1ccc(Oc2cc3c(cc2Cl)C(C(=O)O)CCO3)cc1` (centres unmarked) [Example 86, 6-Chloro-7-(4-(6-(4-chloro-3-fluorophenyl)pyridin-2-ylcarbamoyl)phenoxy)chroman-4-carboxylic acid]: the EC50 was found to be 49.5 nM.

With `CC(C)(C)c1cc(NC(=O)c2ccc(Oc3cc4c(cc3Cl)C(C(=O)O)CCO4)cc2)on1` (centres unmarked) [Example 162, 7-(4-(3-tert-butylisoxazol-5-ylcarbamoyl)phenoxy)-6-chlorochroman-4-carboxylic acid], the EC50 came out at 1600 nM.

Take `O=C(Nc1ccc2cccc(Cl)c2n1)c1ccc(Oc2cc3c(cc2Cl)C(C(=O)O)CCO3)cc1` (centres unmarked) [Example 25, 6-Chloro-7-(4-(8-chloroquinolin-2-ylcarbamoyl)phenoxy)chroman-4-carboxylic acid]: the EC50 turned out to be 5980 nM.

Take `Cc1nc(NC(=O)c2ccc(Oc3cc4c(cc3Cl)C(C(=O)O)CCO4)cc2)cc(-c2ccc(Cl)cc2)n1` (centres unmarked) [Example 101, Sodium 6-chloro-7-(4-(6-(4-chlorophenyl)-2-methylpyrimidin-4-ylcarbamoyl)phenoxy)chroman-4-carboxylate]: the EC50 was 998 nM.

Take `O=C(Nc1cncc(-c2cccc(C(F)(F)F)c2)n1)c1ccc(Oc2cc3c(cc2Cl)C(C(=O)O)CCO3)cc1` (centres unmarked) [Example 94, 6-chloro-7-(4-(6-(3-(trifluoromethyl)phenyl)pyrazin-2-ylcarbamoyl)phenoxy)chroman-4-carboxylic acid]: the EC50 stood at 208 nM.

For the compound `O=C(Nc1ccc2cc(Cl)ccc2n1)c1ccc(Oc2c(Cl)cc3c(c2Cl)OCCC3C(=O)O)cc1` (centres unmarked) [Example 144, Sodium 6,8-dichloro-7-(4-(6-chloroquinolin-2-ylcarbamoyl)phenoxy)chroman-4-carboxylate], the EC50 stood at 299 nM.

As to `CN(C)c1nc(C2CC2)ccc1CCNC(=O)c1ccc(Oc2cc3c(cc2Cl)C(C(=O)O)CCO3)cc1` (centres unmarked) [Example 187, 6-Chloro-7-(4-(2-(6-cyclopropyl-2-(dimethylamino)pyridin-3-yl)ethylcarbamoyl)phenoxy)chroman-4-carboxylic acid], the EC50 stood at 45.2 nM.

For the compound `O=C(Nc1cccc(-c2ccc(Cl)cc2F)n1)c1ccc(Oc2cc3c(cc2Cl)C(C(=O)O)CCO3)cc1` (centres unmarked) [Example 87, 6-chloro-7-(4-(6-(4-chloro-2-fluorophenyl)pyridin-2-ylcarbamoyl)phenoxy)chroman-4-carboxylic acid], the EC50 was determined as 41.4 nM.

Turning to `O=C(Nc1ccc2ccccc2n1)c1ccc(Oc2cc3c(cc2Cl)C(C(=O)O)CCO3)cc1` (centres unmarked) [Example 23, 6-Chloro-7-(4-(quinolin-2-ylcarbamoyl)phenoxy)chroman-4-carboxylic acid], the EC50 is 586 nM.

In the case of `COc1ncccc1CCNC(=O)c1ccc(Oc2cc3c(cc2Cl)C(C(=O)O)CCO3)cc1` (centres unmarked) [Example 227, 6-chloro-7-(4-(2-(2-methoxypyridin-3-yl)ethylcarbamoyl)phenoxy) chroman-4-carboxylic acid], the EC50 is 857 nM.

In the case of `O=C(Nc1cccc(-c2ccc(Cl)cc2)n1)c1ccc(Oc2c(C3CC3)cc3c(c2C2CC2)OCCC3C(=O)O)cc1` (centres unmarked) [Example 107, Sodium 7-(4-(6-(4-chlorophenyl)pyridin-2-ylcarbamoyl)phenoxy)-6,8-dicyclopropylchroman-4-carboxylate], the EC50 was 52.2 nM.

`O=C(Nc1ccn(-c2ccc(Cl)c(Cl)c2)n1)c1ccc(Oc2cc3c(cc2Cl)C(C(=O)O)CCO3)cc1` (centres unmarked) [Example 173, 6-chloro-7-(4-(1-(3,4-dichlorophenyl)-1H-pyrazol-3-ylcarbamoyl)phenoxy)chroman-4-carboxylic acid]: the EC50 came out at 22.9 nM.

As for `COc1ccc(-c2ccc(NC(=O)c3ccc(Oc4cc5c(cc4Cl)C(C(=O)O)CCO5)cc3)nn2)cn1` (centres unmarked) [Example 68, Sodium 6-chloro-7-(4-(6-(6-methoxypyridin-3-yl)pyridazin-3-ylcarbamoyl)phenoxy)chroman-4-carboxylate], the EC50 stood at 869 nM.

As for `O=C(Nc1cc(-c2ccc(F)cc2)n[nH]1)c1ccc(Oc2cc3c(cc2Cl)C(C(=O)O)CCO3)cc1` (centres unmarked) [Example 181, 6-Chloro-7-(4-(3-(4-fluorophenyl)-1H-pyrazol-5-ylcarbamoyl)phenoxy)chroman-4-carboxylic acid], the 50% effective concentration (EC50) was 313 nM.

On to `O=C(Nc1nc(-c2ccc(F)cc2F)cs1)c1ccc(Oc2cc3c(cc2Cl)C(C(=O)O)CCO3)cc1` (centres unmarked) [Example 155, 6-chloro-7-(4-(4-(2,4-difluorophenyl)thiazol-2-ylcarbamoyl)phenoxy)chroman-4-carboxylic acid], for which the EC50 turned out to be 68.9 nM.

As for `COc1ccc(-c2cccc(NC(=O)c3ccc(Oc4cc5c(cc4Cl)C(C(=O)O)CCO5)cc3)n2)cc1` (centres unmarked) [Example 58, 6-Chloro-7-(4-(6-(4-methoxyphenyl)pyridin-2-ylcarbamoyl)phenoxy)chroman-4-carboxylic acid], the EC50 was found to be 67 nM.

Consider `O=C(Nc1ccc(F)c(-c2ccc(Cl)cc2)n1)c1ccc(Oc2cc3c(cc2Cl)C(C(=O)O)CCO3)cc1` (centres unmarked) [Example 44, Sodium 6-Chloro-7-(4-(6-(4-chlorophenyl)-5-fluoropyridin-2-ylcarbamoyl)phenoxy)chroman-4-carboxylate], for which the concentration giving a half-maximal response (EC50) worked out at 5000 nM.

As for `O=C(Nc1ncc(-c2cccc(Cl)c2)cn1)c1ccc(Oc2cc3c(cc2Cl)C(C(=O)O)CCO3)cc1` (centres unmarked) [Example 134, 6-Chloro-7-(4-(5-(3-chlorophenyl)pyrimidin-2-ylcarbamoyl)phenoxy)chroman-4-carboxylic acid], the half-maximal effective concentration (EC50) stood at 426 nM.

Turning to `COc1nc(C(F)(F)F)ccc1CCNC(=O)c1ccc(Oc2cc3c(cc2Cl)C(C(=O)O)CCO3)cc1` (centres unmarked) [Example 80, Sodium 6-chloro-7-(4-(2-(2-methoxy-6-(trifluoromethyl)pyridin-3-yl)ethylcarbamoyl)phenoxy)chroman-4-carboxylate], the EC50 is 25.1 nM.
